The NIST ThermoML archive (doi:10.1016/j.tca.2010.11.002)
± gives the expanded uncertainty stated by the source.

Columns and labels:
[1] = mn = molality of the nth substance listed, in mol/kg; details: 101 kPa, Liquid, Vibrating tube method
[2] = 101.33 kPa, Liquid, Vibrating tube method

SMILES: CN1CCCN(C)C1=O [1,3-dimethyl-3,4,5,6-tetrahydro-2(1H)-pyrimidinone] + O
- mass density ([1]; 278.15 K, m1 = 0.03864): 1000.41 ± 0.04 kg/m3
- mass density ([1]; 278.15 K, m1 = 0.07586): 1000.85 ± 0.05 kg/m3
- mass density ([1]; 278.15 K, m1 = 0.1037): 1001.18 ± 0.05 kg/m3
- mass density ([1]; 278.15 K, m1 = 0.1575): 1001.83 ± 0.05 kg/m3
- mass density ([1]; 278.15 K, m1 = 0.2215): 1002.6 ± 0.05 kg/m3
- mass density ([1]; 278.15 K, m1 = 0.2812): 1003.34 ± 0.05 kg/m3
- mass density ([1]; 278.15 K, m1 = 0.407): 1004.9 ± 0.05 kg/m3
- mass density ([1]; 278.15 K, m1 = 0.5303): 1006.46 ± 0.05 kg/m3
- mass density ([1]; 278.15 K, m1 = 0.6771): 1008.32 ± 0.05 kg/m3
- mass density ([1]; 278.15 K, m1 = 0.8298): 1010.25 ± 0.05 kg/m3
- mass density ([1]; 278.15 K, m1 = 0.9878): 1012.23 ± 0.05 kg/m3
- mass density ([1]; 288.15 K, m1 = 0.03864): 999.51 ± 0.05 kg/m3
- mass density ([1]; 288.15 K, m1 = 0.07586): 999.91 ± 0.04 kg/m3
- mass density ([1]; 288.15 K, m1 = 0.1037): 1000.21 ± 0.05 kg/m3
- mass density ([1]; 288.15 K, m1 = 0.1575): 1000.8 ± 0.05 kg/m3
- mass density ([1]; 288.15 K, m1 = 0.2215): 1001.51 ± 0.05 kg/m3
- mass density ([1]; 288.15 K, m1 = 0.2812): 1002.17 ± 0.05 kg/m3
- mass density ([1]; 288.15 K, m1 = 0.407): 1003.6 ± 0.05 kg/m3
- mass density ([1]; 288.15 K, m1 = 0.5303): 1005.01 ± 0.05 kg/m3
- mass density ([1]; 288.15 K, m1 = 0.6771): 1006.7 ± 0.05 kg/m3
- mass density ([1]; 288.15 K, m1 = 0.8298): 1008.46 ± 0.05 kg/m3
- mass density ([1]; 288.15 K, m1 = 0.9878): 1010.27 ± 0.05 kg/m3
- mass density ([1]; 298.15 K, m1 = 0.03864): 997.43 ± 0.05 kg/m3
- mass density ([1]; 298.15 K, m1 = 0.07586): 997.79 ± 0.05 kg/m3
- mass density ([1]; 298.15 K, m1 = 0.1037): 998.07 ± 0.05 kg/m3
- mass density ([1]; 298.15 K, m1 = 0.1575): 998.61 ± 0.05 kg/m3
- mass density ([1]; 298.15 K, m1 = 0.2215): 999.26 ± 0.05 kg/m3
- mass density ([1]; 298.15 K, m1 = 0.2812): 999.87 ± 0.05 kg/m3
- mass density ([1]; 298.15 K, m1 = 0.407): 1001.17 ± 0.05 kg/m3
- mass density ([1]; 298.15 K, m1 = 0.5303): 1002.46 ± 0.05 kg/m3
- mass density ([1]; 298.15 K, m1 = 0.6771): 1004.01 ± 0.05 kg/m3
- mass density ([1]; 298.15 K, m1 = 0.8298): 1005.62 ± 0.05 kg/m3
- mass density ([1]; 298.15 K, m1 = 0.9878): 1007.28 ± 0.05 kg/m3
- mass density ([1]; 308.15 K, m1 = 0.03864): 994.38 ± 0.05 kg/m3
- mass density ([1]; 308.15 K, m1 = 0.07586): 994.72 ± 0.05 kg/m3
- mass density ([1]; 308.15 K, m1 = 0.1037): 994.98 ± 0.05 kg/m3
- mass density ([1]; 308.15 K, m1 = 0.1575): 995.48 ± 0.05 kg/m3
- mass density ([1]; 308.15 K, m1 = 0.2215): 996.08 ± 0.05 kg/m3
- mass density ([1]; 308.15 K, m1 = 0.2812): 996.64 ± 0.05 kg/m3
- mass density ([1]; 308.15 K, m1 = 0.407): 997.84 ± 0.05 kg/m3
- mass density ([1]; 308.15 K, m1 = 0.5303): 999.04 ± 0.05 kg/m3
- mass density ([1]; 308.15 K, m1 = 0.6771): 1000.47 ± 0.05 kg/m3
- mass density ([1]; 308.15 K, m1 = 0.8298): 1001.96 ± 0.05 kg/m3
- mass density ([1]; 308.15 K, m1 = 0.9878): 1003.5 ± 0.05 kg/m3
- mass density ([1]; 313.15 K, m1 = 0.03864): 992.55 ± 0.05 kg/m3
- mass density ([1]; 313.15 K, m1 = 0.07586): 992.88 ± 0.05 kg/m3
- mass density ([1]; 313.15 K, m1 = 0.1037): 993.12 ± 0.05 kg/m3
- mass density ([1]; 313.15 K, m1 = 0.1575): 993.6 ± 0.05 kg/m3
- mass density ([1]; 313.15 K, m1 = 0.2215): 994.18 ± 0.05 kg/m3
- mass density ([1]; 313.15 K, m1 = 0.2812): 994.72 ± 0.05 kg/m3
- mass density ([1]; 313.15 K, m1 = 0.407): 995.87 ± 0.05 kg/m3
- mass density ([1]; 313.15 K, m1 = 0.5303): 997.02 ± 0.05 kg/m3
- mass density ([1]; 313.15 K, m1 = 0.6771): 998.39 ± 0.05 kg/m3
- mass density ([1]; 313.15 K, m1 = 0.8298): 999.83 ± 0.05 kg/m3
- mass density ([1]; 313.15 K, m1 = 0.9878): 1001.31 ± 0.05 kg/m3
- mass density ([1]; 318.15 K, m1 = 0.03864): 990.54 ± 0.05 kg/m3
- mass density ([1]; 318.15 K, m1 = 0.07586): 990.86 ± 0.05 kg/m3
- mass density ([1]; 318.15 K, m1 = 0.1037): 991.09 ± 0.05 kg/m3
- mass density ([1]; 318.15 K, m1 = 0.1575): 991.55 ± 0.05 kg/m3
- mass density ([1]; 318.15 K, m1 = 0.2215): 992.11 ± 0.05 kg/m3
- mass density ([1]; 318.15 K, m1 = 0.2812): 992.63 ± 0.05 kg/m3
- mass density ([1]; 318.15 K, m1 = 0.407): 993.74 ± 0.05 kg/m3
- mass density ([1]; 318.15 K, m1 = 0.5303): 994.85 ± 0.05 kg/m3
- mass density ([1]; 318.15 K, m1 = 0.6771): 996.17 ± 0.05 kg/m3
- mass density ([1]; 318.15 K, m1 = 0.8298): 997.56 ± 0.05 kg/m3
- mass density ([1]; 318.15 K, m1 = 0.9878): 998.99 ± 0.05 kg/m3

SMILES: CN1CCCN(C)C1=O [1,3-dimethyl-3,4,5,6-tetrahydro-2(1H)-pyrimidinone]
- mass density ([2]; 278.15 K): 1076.18 ± 0.09 kg/m3
- mass density ([2]; 288.15 K): 1067.81 ± 0.09 kg/m3
- mass density ([2]; 298.15 K): 1059.46 ± 0.08 kg/m3
- mass density ([2]; 308.15 K): 1051.12 ± 0.08 kg/m3
- mass density ([2]; 313.15 K): 1046.95 ± 0.08 kg/m3
- mass density ([2]; 318.15 K): 1042.78 ± 0.08 kg/m3
